Measured values published in patent publication US11363816B2, “4-amino-6-(heterocyclic)picolinates and 6-amino-2-(heterocyclic)pyramidine-4-carboxylates and their use as herbicides” (Dow AgroSciences LLC, priority 2017, dated 2022).

Experiments:
Assay type in all cases: in vivo
[1] = test system: STEME=Stellaria media (L.) Vill. (common chickweed); assay: Postemergence field trial, Nisku, Alberta, Canada
Protocol: (§1) Field trials were established in Canada (in Ellerslie, Alberta; Nisku, Alberta and Hanley, Saskatchewan) to evaluate the efficacy of Compound 5, Compound 6, and Compound 7. Trials were designed as randomized complete blocks with four replicates. Trials were established in spring wheat with natural weed population with plot sizes of 2-3 meters (m) by 8-10 m (width×length). The crops were grown using normal cultural practices for fertilization, seeding, and maintenance to ensure good growth of the crop.
(§2) All herbicide treatments were applied post-emergence with applications made to the crops at BBCH (Phenological development stages of a plant) 14 to 22 growth stage. Herbicides were applied with backpack or bicycle sprayers using carbon dioxide (CO2) as a propellant. The sprayers utilized flat fan air-induction spray nozzles calibrated to deliver a uniform spray pattern that provided thorough coverage of the foliage using a 100 L/ha spray volume. All treatments were applied with methylated seed oil (MSO) at 1.25% v/v. Phytotoxicity to the weeds was assessed visually at several intervals after application as percent overall control, compared to an untreated control plot. In general, four replicates were assessed for each treatment. All treatment results are an average of four replicates.
(§3) Compound 5, Compound 6 and Compound 7 were applied as emulsifiable concentrate (EC) formulations at 100 g ae/L EC, respectively.

[2] = test system: CHEAL=Chenopodium album L. (common lambsquarters); assay: Postemergence field trial, Nisku, Alberta, Canada
Protocol: as §1, §2, §3

[3] = test system: VERHE=Veronica hederifolia (ivyleaved speedwell); assay: Postemergence field trial, Banares, Spain
Protocol: (§4) Field trials were established in Spain (Banares and Granon) and Germany (Bielefeld) to evaluate the efficacy of Compound 5, Compound 6, and Compound 7. Trials were designed as randomized complete blocks with three to four replicates. Trials were established in winter wheat with natural weed population with plot sizes of 2-2.5 meters (m) by 6-8 m (width×length). The crops were grown using normal cultural practices for fertilization, seeding, and maintenance to ensure good growth of the crop. All herbicide treatments were applied post-emergence with applications made to the crops at the BBCH 21 to 23 growth stage. Herbicides were applied with backpack or bicycle sprayers using air as a propellant. The sprayers utilized flat fan air-induction spray nozzles calibrated to deliver a uniform spray pattern that provided thorough coverage of the foliage using a 200 L/ha spray volume. All treatments were applied with methylated seed oil (MSO) at 1.25% v/v. Phytotoxicity to the weeds was assessed visually at several intervals after application as percent overall control, compared to an untreated control plot. In general, three to four replicates were assessed for each treatment. All treatment results are an average of three or four replicates. Compound 5, Compound 6, and Compound 7 were applied as emulsifiable concentrate (EC) formulations at 100 g ae/L EC, respectively.

[4] = test system: PAPRH=Papaver rhoeas L. (common poppy); assay: Postemergence field trial, Banares, Spain
Protocol: as §4

[5] = test system: FUMOF=Fumaria officinalis (common fumitory); assay: Postemergence field trial, Banares, Spain
Protocol: as §4

[6] = test system: CENCY=Centaurea cyanus (cornflower); assay: Postemergence field trial, Bielefed, Germany
Protocol: as §4

[7] = test system: PAPRH=Papaver rhoeas L. (common poppy); assay: Postemergence field trial, Bielefed, Germany
Protocol: as §4

[8] = test system: weeds; assay: Herbicidal activity, overall conclusion from greenhouse and field results; settings: summary of Tables 1 to 8
Source text: These new chemical herbicides offer a broader spectrum of weed control, higher activity against weeds, and provide a way to address the management of weeds that developed resistance with respect to herbicides traditionally used to control them.

[9] = test system: VERHE=Veronica hederifolia (ivyleaved speedwell); assay: Postemergence field trial, Granon, Spain (Table 5)
Protocol: as §4

[10] = test system: PAPRH=Papaver rhoeas L. (common poppy); assay: Postemergence field trial, Granon, Spain (Table 5)
Protocol: as §4

[11] = test system: PAPRH=Papaver rhoeas L. (common poppy); assay: Postemergence field trial, Granon, Spain (Table 7)
Protocol: as §4

[12] = test system: SINAR=Sinapis arvensis L. (wild mustard); assay: Postemergence field trial, Granon, Spain (Table 7)
Protocol: as §4

In the case of `C#CCOC(=O)c1nc(-c2ccc3cc[nH]c3c2F)c(F)c(N)c1Cl` [Compound 5, prop-2-yn-1-yl 4-amino-3-chloro-5-fluoro-6-(7-fluoro-1H-indol-6-yl)picolinate], the “Percent (%) Visual Control STEME 28DAAA” value ([1]; 10 g ae/ha) is reported as 88%, the “Percent (%) Visual Control STEME 51DAAA” value ([1]; 10 g ae/ha) is reported as 88.3% and the “Percent (%) Visual Control STEME 28DAAA” value ([1]; 20 g ae/ha) is reported as 96%. For the same compound, the “Percent (%) Visual Control STEME 51DAAA” value ([1]; 20 g ae/ha) was 92.5%, the “Percent (%) Visual Control STEME 28DAAA” value ([1]; 40 g ae/ha) was 99% and the “Percent (%) Visual Control STEME 51DAAA” value ([1]; 40 g ae/ha) was 93.8%. For the same compound, the “Percent (%) Visual Control CHEAL 51DAAA” value ([2]; 10 g ae/ha) was 98%, the “Percent (%) Visual Control CHEAL 51DAAA” value ([2]; 20 g ae/ha) was 96.8% and the “Percent (%) Visual Control CHEAL 51DAAA” value ([2]; 40 g ae/ha) was 97.3%. For the same compound, the “Percent (%) Visual Control VERHE 66DAAA” value ([3]; 5 g ae/ha) was 60%, the “Percent (%) Visual Control VERHE 66DAAA” value ([3]; 10 g ae/ha) was 77.7% and the “Percent (%) Visual Control VERHE 66DAAA” value ([3]; 20 g ae/ha) was 91%. For the same compound, the “Percent (%) Visual Control PAPRH 66DAAA” value ([4]; 5 g ae/ha) was 57.7%, the “Percent (%) Visual Control PAPRH 66DAAA” value ([4]; 10 g ae/ha) was 70% and the “Percent (%) Visual Control PAPRH 66DAAA” value ([4]; 20 g ae/ha) was 90%. The “Percent (%) Visual Control FUMOF 83DAAA” value ([5]; 5 g ae/ha) was 41.7%, the “Percent (%) Visual Control FUMOF 83DAAA” value ([5]; 10 g ae/ha) was 65% and the “Percent (%) Visual Control FUMOF 83DAAA” value ([5]; 20 g ae/ha) was 93.3%. The “Percent (%) Visual Control CENCY 85DAAA” value ([6]; 5 g ae/ha) was 65%, the “Percent (%) Visual Control CENCY 85DAAA” value ([6]; 10 g ae/ha) was 87.5% and the “Percent (%) Visual Control CENCY 85DAAA” value ([6]; 20 g ae/ha) was 95%. For the same compound, the “Percent (%) Visual Control PAPRH 85DAAA” value ([7]; 5 g ae/ha) was 92.5%, the “Percent (%) Visual Control PAPRH 85DAAA” value ([7]; 10 g ae/ha) was 97.3% and the “Percent (%) Visual Control PAPRH 85DAAA” value ([7]; 20 g ae/ha) was 98.8%. The “herbicidal activity (overall conclusion)” value [8] was “superior herbicidal activity over Compound 7”, the “Percent (%) Visual Control VERHE 34DAAA” value ([9]; 5 g ae/ha) was 60% and the “Percent (%) Visual Control VERHE 34DAAA” value ([9]; 10 g ae/ha) was 77%. The “Percent (%) Visual Control VERHE 34DAAA” value ([9]; 20 g ae/ha) was 85%, the “Percent (%) Visual Control PAPRH 84DAAA” value ([10]; 5 g ae/ha) was 66.7% and the “Percent (%) Visual Control PAPRH 84DAAA” value ([10]; 10 g ae/ha) was 78.3%. For the same compound, the “Percent (%) Visual Control PAPRH 84DAAA” value ([10]; 20 g ae/ha) was 90.7%, the “Percent (%) Visual Control PAPRH 68DAAA” value ([11]; 5 g ae/ha) was 58.3% and the “Percent (%) Visual Control PAPRH 68DAAA” value ([11]; 10 g ae/ha) was 72.7%. For the same compound, the “Percent (%) Visual Control PAPRH 68DAAA” value ([11]; 20 g ae/ha) was 79.3%, the “Percent (%) Visual Control SINAR 48DAAA” value ([12]; 5 g ae/ha) was 85% and the “Percent (%) Visual Control SINAR 48DAAA” value ([12]; 10 g ae/ha) was 94.8%. For the same compound, the “Percent (%) Visual Control SINAR 48DAAA” value ([12]; 20 g ae/ha) was 95%.
